Experimental data taken from US11440903B2, “Salt form and crystal form of compound as FGFR4 inhibitor and preparation method thereof” (GUANGDONG ZHONGSHENG PHARMACEUTICAL CO., LTD, priority 2017, dated 2022).
Like-named read-outs stand apart in the source and are kept apart here.

Assay: Solubility test in biological media (FaSSIF, FeSSIF, SGF) and water, 37° C.
Format: physicochemical
Settings: for Status (24 h) / solubility at 24 h / pH 24 hours: 37° C.; for Status (24 h): about 4 mg in 2 mL; for solubility at 24 h: salt forms converted to salt concentrations, read-out: Solubility (mg/mL) 24 hours; for pH 24 hours: supernatant; for pH 0 hour: initial
Method: Step 1: Preparation of Control Solutions (0.2 mg/mL, calculated by free base)
2 mg the crystal form B of the compound represented by formula (I) (or 2.4 mg the crystal form E of the compound represented by formula (II)) as a control was precisely weighed and placed into a 40 mL glass vial, and a diluent (10 mL) was precisely added. The reaction solution was subjected to ultrasonic treatment for 20 min to sufficiently dissolve, then cooled to room temperature and shaked well. Two control solutions (STD #1, STD #2) were formulated in accordance with this method.
Step 2: Preparation of Linear Solutions
The control solution STD #1 of the crystal form B of the compound represented by formula (I) was 1×, 10×, 100×, 1000× and 2000× (free base LOQ) diluted, and designated as the linear solutions L1, L2, L3, L4 and L5; the control solution STD #1 of the crystal form E of the compound represented by formula (II) was 1×, 10×, 100× and 1000× (methanesulfonate LOQ) diluted, and designated as the linear solutions L1, L2, L3, L4.
Step 3: Solubility Test of the crystal form B of the compound represented by formula (I), the crystal form G of the compound represented by formula (III) and the crystal form E of the compound represented by formula (II) in biological media and water
4 samples (about 4 mg) of each of the crystal form B of the compound represented by formula (I), the crystal form E of the compound represented by formula (II), and the crystal form G of the compound represented by formula (III) were added into 12 glass vials (4 mL), respectively, and then 2 mL different biological media (FaSSIF, FeSSIF, SGF) and water were added into each compound respectively, then mixed homogeneously to form a suspension. The suspension was detected for its initial pH value. A magnet was added into the suspension, and placed on a magnetic stirring heater for stirring (at a temperature of 37° C., in dark). After stirring for 24 h, a sample was taken. The taken sample was quickly centrifuged, and the residual solid was detected by XRPD. The supernatant was detected for its pH value and diluted with a diluent into appropriate multiple, then measured with HPLC for its concentration.
FaSSIF: 1. 0.042 g sodium hydroxide, 0.3438 g sodium dihydrogen phosphate and 0.6186 g sodium chloride were weighed, added into 90 mL purified water, and homogeneously mixed, then, the mixture was adjusted with 1 N hydrochloric acid or 1 N sodium hydroxide to pH=6.5, and diluted into a constant volume of 100 mL with purified water; 2. 50 mL of the buffer described above was taken, and 0.224 g commercially available powder (Biorelevant.com) of FaSSIF/FeSSIF/FaSSGF was added thereto, the mixture was stirred to dissolve, and diluted with purified water to a constant volume of 100 mL.
FeSSIF: 1. 0.404 g sodium hydroxide, 0.865 g glacial acetic acid, and 1.1874 g sodium chloride were weighed, added into 90 mL purified water, and homogeneously mixed, then, the mixture was adjusted with 1 N hydrochloric acid or 1 N sodium hydroxide to pH=5.0, and diluted with purified water to a constant volume of 100 mL, 2. 50 mL of the buffer described above was taken, and 1.12 g commercially available powder (Biorelevant.com) of FaSSIF/FeSSIF/FaSSGF was added thereto, the mixture was stirred to dissolve, and diluted with purified water to a constant volume of 100 mL.
FaSSGF (SGF): 1. 0.2 g sodium chloride was weighed, added into 90 mL purified water, and mixed homogeneously, the mixture was adjusted with 1 N hydrochloric acid to pH=1.8, and diluted with purified water to a constant volume of 100 mL, and stood at room temperature.

[1] = SGF (FaSSGF), pH 1.8, simulated gastric fluid, thermodynamic from solid, SGF
[2] = pH 5, thermodynamic from solid, FeSSIF
[3] = pH 6.5, thermodynamic from solid, FaSSIF
[4] = thermodynamic from solid, Water

Row | Status (24 h) (FaSSIF) | solubility in three types of biological media, conclusion in words (FaSSIF, FeSSIF, SGF) | Status (24 h) (FeSSIF) | solubility at 24 h [1] [mg/mL] | Status (24 h) (SGF) | Status (24 h) (Water) | solubility at 24 h [2] [mg/mL] | solubility at 24 h [3] [mg/mL] | pH 24 hours (FaSSIF) | pH 24 hours (FeSSIF) | pH 24 hours (SGF) | pH 24 hours (Water) | pH 0 hour (suspension in FaSSIF) | pH 0 hour (suspension in FeSSIF) | pH 0 hour (suspension in SGF) | pH 0 hour (suspension in Water) | solubility at 24 h [4] [mg/mL] | SMILES
1 | Suspension | good solubility | Suspension | 0.041 | Suspension | Suspension | 0.358 | 0.036 | 6.81 | 5.11 | 2.31 | 2.74 | 6.97 | 4.92 | 2.17 | 3.50 | 0.1 | C=CC(=O)N[C@H]1COC[C@H]1Nc1ncc(/C=C(\F)c2c(Cl)c(OC)cc(OC)c2Cl)cn1.CS(=O)(=O)O [Crystal Form E]
2 | Suspension | good solubility | Suspension | 0.014 | Suspension | Suspension | 0.284 | 0.041 | 7.10 | 5.18 | 2.48 | 7.30 | 7.04 | 4.98 | 2.21 | 8.34 | 0.007 | C=CC(=O)N[C@H]1COC[C@H]1Nc1ncc(/C=C(\F)c2c(Cl)c(OC)cc(OC)c2Cl)cn1 [Crystal Form B]
